In patent US10160747B2, “Compounds and methods for kinase modulation, and indications therefor” (Plexxikon Inc., priority 2016, dated 2018):

How the values were obtained:
Format in all cases: biochemical
FLT3-ITD = biological target: T1, FLT3-ITD (Homo sapiens, UniProt P36888); assay: FLT3-ITD recombinant enzyme kinase assay (AlphaScreen); conditions: 8 pt; read-out: FLT3_ITD 8 pt: IC50
T1 sequence (P36888 1-993): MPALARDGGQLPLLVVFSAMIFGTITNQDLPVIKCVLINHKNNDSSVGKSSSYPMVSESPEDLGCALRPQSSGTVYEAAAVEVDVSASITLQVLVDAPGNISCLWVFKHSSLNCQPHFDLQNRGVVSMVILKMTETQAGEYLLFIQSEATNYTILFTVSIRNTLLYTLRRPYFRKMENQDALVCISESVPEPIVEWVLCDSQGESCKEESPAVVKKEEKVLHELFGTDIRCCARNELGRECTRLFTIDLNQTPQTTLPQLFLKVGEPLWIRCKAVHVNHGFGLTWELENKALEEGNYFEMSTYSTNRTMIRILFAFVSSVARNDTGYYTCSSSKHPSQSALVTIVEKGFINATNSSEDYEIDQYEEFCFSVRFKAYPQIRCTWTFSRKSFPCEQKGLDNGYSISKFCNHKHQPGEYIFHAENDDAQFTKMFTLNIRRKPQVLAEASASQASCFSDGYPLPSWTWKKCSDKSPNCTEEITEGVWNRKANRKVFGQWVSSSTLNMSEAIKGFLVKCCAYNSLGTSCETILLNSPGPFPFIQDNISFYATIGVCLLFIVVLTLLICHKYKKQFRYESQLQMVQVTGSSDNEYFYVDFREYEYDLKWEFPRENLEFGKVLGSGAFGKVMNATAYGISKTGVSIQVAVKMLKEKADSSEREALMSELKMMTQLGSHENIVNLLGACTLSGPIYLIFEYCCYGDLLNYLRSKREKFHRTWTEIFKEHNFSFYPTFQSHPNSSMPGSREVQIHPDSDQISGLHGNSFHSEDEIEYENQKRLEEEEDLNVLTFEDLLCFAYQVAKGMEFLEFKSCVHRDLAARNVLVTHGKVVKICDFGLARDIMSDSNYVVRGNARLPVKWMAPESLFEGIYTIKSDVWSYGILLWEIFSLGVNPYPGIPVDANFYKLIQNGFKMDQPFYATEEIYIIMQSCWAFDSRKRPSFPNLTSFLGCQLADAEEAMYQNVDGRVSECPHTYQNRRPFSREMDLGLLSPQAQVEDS
Procedure, shortened: (§1)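 Substrate 30 nM biotin-GG(EEEEY)10EE; ATP 10 μM (FLT3-ITD, FLT3-D835Y) or 100 μM (c-KIT). Detection: AlphaScreen PY20 kit, 10 μg/mL beads, RT 20 + 60 min. Readout 580 nm; IC50.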

c-KIT = biological target: T2, c-KIT (Homo sapiens, UniProt P10721); assay: c-KIT recombinant enzyme kinase assay (AlphaScreen); conditions: 100 ATP, 8 pt
T2 construct: purchased Millipore 14-559K
Procedure, shortened: as §1

FLT3-D835Y = biological target: T3, FLT3-D835Y (Homo sapiens, UniProt P36888, D835Y); assay: FLT3-D835Y recombinant enzyme kinase assay (AlphaScreen); conditions: 8 pt, GMean
T3 construct: purchased Invitrogen PV3967
T3 sequence (P36888 27-993 D835Y): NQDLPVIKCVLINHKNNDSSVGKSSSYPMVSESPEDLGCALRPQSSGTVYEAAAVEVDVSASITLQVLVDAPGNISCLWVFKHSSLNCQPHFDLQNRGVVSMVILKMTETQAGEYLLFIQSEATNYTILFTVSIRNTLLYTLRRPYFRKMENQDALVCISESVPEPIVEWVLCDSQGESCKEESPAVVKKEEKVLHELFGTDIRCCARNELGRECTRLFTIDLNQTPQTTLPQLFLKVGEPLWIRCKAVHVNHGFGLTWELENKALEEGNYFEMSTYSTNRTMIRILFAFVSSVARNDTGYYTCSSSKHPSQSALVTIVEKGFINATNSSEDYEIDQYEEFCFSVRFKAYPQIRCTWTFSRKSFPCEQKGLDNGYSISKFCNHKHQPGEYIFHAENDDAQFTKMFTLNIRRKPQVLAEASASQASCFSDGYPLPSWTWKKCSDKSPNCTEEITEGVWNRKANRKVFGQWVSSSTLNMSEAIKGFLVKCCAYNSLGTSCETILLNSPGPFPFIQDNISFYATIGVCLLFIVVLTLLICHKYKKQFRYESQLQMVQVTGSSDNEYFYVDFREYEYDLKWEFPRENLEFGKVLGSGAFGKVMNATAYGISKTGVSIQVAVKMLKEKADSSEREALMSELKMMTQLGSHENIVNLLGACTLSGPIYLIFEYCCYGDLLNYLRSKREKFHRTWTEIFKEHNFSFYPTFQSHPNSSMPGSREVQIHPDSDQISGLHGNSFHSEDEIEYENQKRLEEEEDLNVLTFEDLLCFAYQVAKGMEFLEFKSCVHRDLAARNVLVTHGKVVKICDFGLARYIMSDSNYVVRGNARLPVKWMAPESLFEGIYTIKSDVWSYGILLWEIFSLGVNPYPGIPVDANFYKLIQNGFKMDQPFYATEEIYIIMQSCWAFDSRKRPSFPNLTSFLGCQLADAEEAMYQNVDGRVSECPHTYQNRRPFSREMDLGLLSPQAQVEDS
Procedure, shortened: as §1

Measured: IC50

T2 sequence (P10721 26-976): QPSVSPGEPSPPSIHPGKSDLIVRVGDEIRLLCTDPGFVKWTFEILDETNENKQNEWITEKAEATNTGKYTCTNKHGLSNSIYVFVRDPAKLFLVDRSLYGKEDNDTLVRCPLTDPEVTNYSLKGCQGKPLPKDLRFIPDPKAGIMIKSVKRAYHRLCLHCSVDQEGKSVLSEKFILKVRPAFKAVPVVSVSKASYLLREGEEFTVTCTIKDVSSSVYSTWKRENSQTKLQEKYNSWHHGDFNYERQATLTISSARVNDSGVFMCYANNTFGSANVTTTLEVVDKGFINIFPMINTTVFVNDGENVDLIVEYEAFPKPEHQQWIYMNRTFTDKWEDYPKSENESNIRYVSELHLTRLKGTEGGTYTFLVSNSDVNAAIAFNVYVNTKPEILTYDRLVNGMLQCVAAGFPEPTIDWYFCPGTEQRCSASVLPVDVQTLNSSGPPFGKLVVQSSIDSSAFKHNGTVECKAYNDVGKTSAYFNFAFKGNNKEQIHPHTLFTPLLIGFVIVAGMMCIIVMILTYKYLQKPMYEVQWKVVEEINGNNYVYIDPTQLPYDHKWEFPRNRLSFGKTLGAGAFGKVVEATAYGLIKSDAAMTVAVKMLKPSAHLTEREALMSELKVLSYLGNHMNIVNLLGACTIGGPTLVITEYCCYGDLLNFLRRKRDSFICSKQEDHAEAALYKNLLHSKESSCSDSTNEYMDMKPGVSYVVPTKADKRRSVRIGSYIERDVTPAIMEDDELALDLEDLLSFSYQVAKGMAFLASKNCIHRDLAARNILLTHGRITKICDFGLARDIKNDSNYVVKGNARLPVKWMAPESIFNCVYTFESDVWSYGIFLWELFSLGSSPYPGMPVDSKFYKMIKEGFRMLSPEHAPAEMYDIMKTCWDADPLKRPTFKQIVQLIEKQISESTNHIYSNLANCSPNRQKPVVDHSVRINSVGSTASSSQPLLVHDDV

COc1ncc(NC(=O)Cc2ccc(-c3cnc4[nH]nc(N)c4c3)c(F)c2)cc1C(F)(F)F [Compound P-0203, 2-[4-(3-amino-1H-pyrazolo[3,4-b]pyridin-5-yl)-3-fluoro-phenyl]-N-[6-methoxy-5-(trifluoromethyl)-3-pyridyl]acetamide]
0.0001 to 10 µM: all assays above

COc1ncc(NC(=O)Cc2ccc(-c3cnc(Nc4cnn(C5CC5)c4)nc3)cc2)cc1C(F)(F)F [Compound P-0234, 2-[4-[2-[(1-cyclopropylpyrazol-4-yl)amino]pyrimidin-5-yl]phenyl]-N-[6-methoxy-5-(trifluoromethyl)-3-pyridyl]acetamide]
0.0001 to 10 µM: all assays above

O=C(Cc1cc(F)c(-c2cnc(Nc3cnn(C(F)F)c3)nc2)cc1F)Nc1cc(C(F)(F)F)ccn1 [Compound P-0021, 2-[4-[2-[[1-(difluoromethyl)pyrazol-4-yl]amino]pyrimidin-5-yl]-2,5-difluoro-phenyl]-N-[4-(trifluoromethyl)-2-pyridyl]acetamide]
0.0001 to 10 µM: all assays above

COCCn1cc(Nc2ncc(-c3ccc(CC(=O)Nc4cncc(C(F)(F)F)c4)c(F)c3)cn2)cn1 [Compound P-0267, 2-[2-fluoro-4-[2-[[1-(2-methoxyethyl)pyrazol-4-yl]amino]pyrimidin-5-yl]phenyl]-N-[5-(trifluoromethyl)-3-pyridyl]acetamide]
0.0001 to 10 µM: all assays above

COCCn1cc(Nc2ncc(-c3ccc(CC(=O)Nc4cc(C(F)(F)F)ccn4)c(F)c3)cn2)cn1 [Compound P-0270, 2-[2-fluoro-4-[2-[[1-(2-methoxyethyl)pyrazol-4-yl]amino]pyrimidin-5-yl]phenyl]-N-[4-(trifluoromethyl)-2-pyridyl]acetamide]
0.0001 to 10 µM: all assays above

CCOc1n[nH]c2ncc(-c3ccc(CC(=O)Nc4cnc(OC)c(C(F)(F)F)c4)cc3F)cc12 [Compound P-0202, 2-[4-(3-ethoxy-1H-pyrazolo[3,4-b]pyridin-5-yl)-3-fluoro-phenyl]-N-[6-methoxy-5-(trifluoromethyl)-3-pyridyl]acetamide]
0.0001 to 10 µM: all assays above

O=C(Cc1ccc(-c2cnc(Nc3cnn(C4CC4)c3)nc2)cc1)Nc1ccc(C(F)(F)F)nc1 [Compound P-0235, 2-[4-[2-[(1-cyclopropylpyrazol-4-yl)amino]pyrimidin-5-yl]phenyl]-N-[6-(trifluoromethyl)-3-pyridyl]acetamide]
0.0001 to 10 µM: all assays above

O=C(Cc1ccc(-c2cnc(Nc3cnn(C4CC4)c3)nc2)cc1F)Nc1cc(C(F)(F)F)ccn1 [Compound P-0244, 2-[4-[2-[(1-cyclopropylpyrazol-4-yl)amino]pyrimidin-5-yl]-2-fluoro-phenyl]-N-[4-(trifluoromethyl)-2-pyridyl]acetamide]
0.0001 to 10 µM: all assays above
